For one data set, the target named is human TRPA1 ion channel (Homo sapiens (Human), UniProt O75762). Briefly: Assay A: TRPA1 assay (FLIPR calcium, AITC agonism, HEK293 over-expressing human TRPA1). It is filed as cell-based. The following applies: HEK293 over-expressing human TRPA1, AITC 10 μM, FLIPRtetra; read-out: hTRPA1 IC50. On the procedure: A human HEK293 cell line over-expressing the human TRPA1 ion channel (Perkin Elmer, Product No. AX-004-PCL) was used as a test system for compound efficacy and potency. Compound activity was determined by measuring the effect of compounds on intracellular calcium concentration induced by AITC (Allylisothiocyanat) agonism in a FLIPRtetra system (Molecular Devices).
The cells were obtained as frozen cells in cryo-vials and stored until use at −150° C. Cells were grown in culture medium (MEM/EBSS medium with 10% FCS and 0.4 mg/ML Geneticin). […] For sub-culturing cells were detached from flasks by Versene. At the day before the assay, cells were detached, washed twice with medium (MEM/EBSS medium with 10% FCS) and 20000 cells in 20 μl/well were seeded to Poly D-Lysin biocoated 384-well plates (black, clear bottom, Cat. 356697) from Corning. Plates were incubated for 24 hours at 37° C./5% CO2 before use in the assay.
The test compounds were dissolved in 100% DMSO at a concentration of 10 mM and in a first step diluted in DMSO to a concentration of 5 mM, followed by serial dilution steps in 100% DMSO. Dilution factor and number of dilution steps may vary according to needs. Typically 8 different concentrations by 1:5 dilutions were prepared, further intermediate dilutions (1:20) of the substances were carried out with HBSS/HEPES buffer (1×HEPES, Cat. 14065 from Gibco, 20 mM HEPES, Cat. 83264 from SIGMA, 0.1% BSA Cat. 11926 from Invitrogen, pH 7,4
At the assay day cells were washed 3× with assay puffer, 20 μL buffer remained in the wells after washing. 10 μL Ca6 kit (Cat. R8191 MolecularDevices) loading buffer in HBSS/HEPES was added to the cells and the plates were incubated with lid for 120 minutes at […]. 10 μL of compound or controls in HBSS/HEPES buffer/5% DMSO from the intermediate dilution plate were carefully added to the wells. […] Finally 10 μL of the agonist AITC 50 μM dissolved in HBSS/HEPES buffer/0.05% DMSO (final concentration 10 μM) was added to the wells followed by an additional read on the FLIPRtetra device for 10 minutes. The area under the signal curve (AUC) after AITC addition was used for IC50/% inhibition calculations
Data Evaluation and Calculation:
Each assay microtiter plate contained wells with vehicle (1% DMSO) controls instead of compound as controls for AITC induced luminescence (100% CTL; high controls) and wells with vehicle controls without AITC as controls for non-specific changes in luminescence (0% CTL; low controls).
The analysis of the data was performed by the calculation of the area under signal curve of the individual wells. Based on this values the % value for the measurement of each substance concentration was calculated (AUC(sample)−AUC(low))*100/(AUC(high)−AUC(low)) using MegaLab software (in house development). The IC50 values were calculated from the % control values using MegaLab software. Calculation: [y=(a−d)/(1+(x/c)^b)+d], a=low value, d=high value; x=cone M; c=IC50 M; b=hill; y=% ctrl

The nature of data set [1]: Assay C: Hepatocyte clearance. It is filed as in vitro ADME, human. To be noted: hepatocyte suspension, 1 μM test compound. On the procedure: Assay C: Hepatocyte Clearance
The metabolic degradation of the test compound is assayed in a hepatocyte suspension. Hepatocytes (cryopreserved) are incubated in. Dulbecco's modified eagle medium (supplemented with 3.5 μg glucagon/500 mL, 2.5 mg insulin/500 mL and 3.75 mg/500 mL hydrocortison) containing 5% or 50% species serum.
Following a 30 min preincubation in an incubator (37° C., 10% CO2) 5 μl of test compound solution (80 μM; from 2 mM in DMSO stock solution diluted 1:25 with medium) are added into 395 μl hepatocyte suspension (cell density in the range 0.25-5 Mio cells/mL depending on the species, typically 1 Mio cells/mL; final concentration of test compound 1 μM, final DMSO concentration 0.05%).
The cells are incubated for six hours (incubator, orbital shaker) and samples (25 μl) are taken at 0, 0.5, 1, 2, 4 and 6 hours. Samples are transferred into acetonitrile and pelleted by centrifugation (5 min). The supernatant is transferred to a new 96-deepwell plate, evaporated under nitrogen and resuspended.
Decline of parent compound is analyzed by HPLC-MS/MS
CLint is calculated as follows CL_[…]=Dose/AUC=(C0/CD)/(AUD+clast/k)×1000/60. CO: initial concentration in the incubation [μM], CD: cell density of vital cells [10e6 cells/mL], AUD: area under the data [μM×h], clast: concentration of last data point [μM], k: slope of the regression line for parent decline [h-1].
The calculated in vitro hepatic intrinsic clearance can be scaled up to the intrinsic in vivo hepatic Clearance and used to predict hepatic in vivo blood clearance (CL) by the use of a liver model (well stirred model). CL_[…]_INVIVO [ml/min/kg]=(CL_[…] [μL/min/10e6 cells]×hepatocellularity [10e6 cells/g liver]×liver factor [g/kg body weight])/1000 CL [ml/min/kg]=CL_[…]_INVIVO [ml/min/kg]×hepatic blood flow [ml/min/kg]/(CL_[…]_INVIVO [ml/min/kg]+hepatic blood flow [ml/min/kg]) Qh [%]=CL [ml/min/kg]/hepatic blood flow [ml/min/kg])
(§1) Hepatocellularity, human: 120×10e6 cells/g liver
(§2) Liver factor, human: 25.7 g/kg bodyweight
(§3) Blood flow, human: 21 ml/(min×kg)

Data set [2] is described as follows: Assay D: Metabolism in human hepatocytes in vitro. It is filed as in vitro ADME. To be noted: primary human hepatocytes, 10 μM. The procedure: Assay D: Metabolism in Human Hepatocytes In Vitro
The metabolic pathway of a test compound is investigated using primary human hepatocytes in suspension.
Following a 30 min preincubation in a cell culture incubator (37° C., 10% CO2), test compound solution is spiked into the hepatocyte suspension to obtain a final cell density of 1.0*10^6 to 4.0*10^6 cells/ml (depending on the metabolic turnover rate of the compound observed with primary human hepatocytes), a final test compound concentration of 10 μM, and a final DMSO concentration of 0.05%.
The cells are incubated for six hours in a cell culture incubator on a horizontal shaker, and samples are removed from the incubation after 0, 0.5, 1, 2, 4 or 6 hours, depending on the metabolic turnover rate. Samples are quenched with acetonitrile and pelleted by centrifugation. The supernatant is transferred to a 96-deepwell plate, evaporated under nitrogen and resuspended prior to bioanalysis by liquid chromatography-high resolution mass spectrometry for identification of putative metabolites.

Data set [3] can be described thus: Assay B: Microsomal clearance. It is filed as in vitro ADME, human. The following applies: pooled liver microsomes, 1 μM test compound, 37° C. On the procedure:
Assay B: Microsomal Clearance:
The metabolic degradation of the test compound is assayed at 37° C. with pooled liver microsomes. The final incubation volume of 100 μl per time point contains TRIS buffer pH 7.6 at RT (0.1 M), magnesium chloride (5 mM), microsomal protein (1 mg/ml) and the test compound at a final concentration of 1 μM.
Following a short preincubation period at 37° C., the reactions are initiated by addition of beta-nicotinamide adenine dinucleotide phosphate, reduced form (NADPH, 1 mM) and terminated by transferring an aliquot into solvent after different time points (0, 5, 15, 30, 60 min). Additionally, the NADPH-independent degradation is monitored in incubations without NADPH, terminated at the last time point. The [%] remaining test compound after NADPH independent incubation is reflected by the parameter c(control) (metabolic stability). The quenched incubations are pelleted by centrifugation (10000 g, 5 min).
An aliquot of the supernatant is assayed by LC-MS/MS for the amount of parent compound. The half-life (t½ INVITRO) is determined by the slope of the semilogarithmic plot of the concentration-time profile.
The intrinsic clearance (CL_[…]) is calculated by considering the amount of protein in the incubation: CL_[…] [μl/min/mg protein]=(Ln 2/(half-life [min]*protein content [mg/ml]))*1000 CL_[…]_INVIVO [ml/min/kg]=(CL_[…] [μL/min/mg protein]×MPPGL [mg protein/g liver]×liver factor [g/kg body weight])/1000 Qh [%]=CL [ml/min/kg]/hepatic blood flow [ml/min/kg])
as §1, §2, §3
Background: Liver microsomes are vesicles of endoplasmic reticulum, rich in cytochrome P450 enzymes.

Results on three molecules are retold here after patent publication US11578080B2, “Thienopyrimidones” (Boehringer Ingelheim International GmbH, priority 2019, dated 2023).

Chain of human TRPA1 ion channel (O75762 whole entry): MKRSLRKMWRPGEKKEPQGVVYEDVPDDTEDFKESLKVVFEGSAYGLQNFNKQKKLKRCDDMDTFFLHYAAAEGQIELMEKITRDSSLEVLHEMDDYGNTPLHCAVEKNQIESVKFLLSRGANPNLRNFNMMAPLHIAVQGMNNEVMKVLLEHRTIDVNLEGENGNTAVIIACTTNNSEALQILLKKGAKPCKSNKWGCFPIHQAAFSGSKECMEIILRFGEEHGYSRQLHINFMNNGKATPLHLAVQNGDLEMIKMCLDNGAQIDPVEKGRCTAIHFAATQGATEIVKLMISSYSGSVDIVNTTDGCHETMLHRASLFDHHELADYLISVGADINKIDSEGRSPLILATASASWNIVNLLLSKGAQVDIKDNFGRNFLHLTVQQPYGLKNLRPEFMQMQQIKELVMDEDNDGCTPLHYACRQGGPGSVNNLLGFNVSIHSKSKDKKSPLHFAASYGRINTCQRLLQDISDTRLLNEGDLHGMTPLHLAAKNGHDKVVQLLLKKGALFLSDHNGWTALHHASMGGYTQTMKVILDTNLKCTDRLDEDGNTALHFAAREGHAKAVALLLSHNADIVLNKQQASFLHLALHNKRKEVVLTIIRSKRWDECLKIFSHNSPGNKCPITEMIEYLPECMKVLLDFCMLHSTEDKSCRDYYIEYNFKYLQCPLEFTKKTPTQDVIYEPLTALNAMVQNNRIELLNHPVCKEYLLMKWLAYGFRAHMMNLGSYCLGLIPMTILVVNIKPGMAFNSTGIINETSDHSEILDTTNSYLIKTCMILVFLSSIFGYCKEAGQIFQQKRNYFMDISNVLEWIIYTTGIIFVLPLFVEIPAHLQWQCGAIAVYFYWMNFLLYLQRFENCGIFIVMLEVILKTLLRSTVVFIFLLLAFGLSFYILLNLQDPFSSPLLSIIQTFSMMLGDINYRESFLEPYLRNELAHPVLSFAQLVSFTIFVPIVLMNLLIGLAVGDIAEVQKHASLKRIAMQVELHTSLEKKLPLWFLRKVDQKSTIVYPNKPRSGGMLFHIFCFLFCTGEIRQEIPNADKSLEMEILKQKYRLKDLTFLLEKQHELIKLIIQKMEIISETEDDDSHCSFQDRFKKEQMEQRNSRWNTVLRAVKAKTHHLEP

As for `O=C1NCCc2c1sc1ncn(Cc3nnn(C[C@H](O)c4ccc(Cl)cc4)n3)c(=O)c21` [Example 6], the IC50 (in general, the midpoint of a concentration-inhibition curve) on human TRPA1 ion channel amounted to 11 nM. Also, the “human Hepatocytes [% Qh]” value in data set [1] stood at 7 % Qh. The “Major metabolite observed: Mechanism” value is listed as “Oxygenation” in data set [2] (Metabolite M1), “Dehydrogenation” in data set [2] (Metabolite M2) and “Glucuronidation” in data set [2] (Metabolite M3). The “human LM [% Qh]” value in data set [3] was below 23 % Qh.

For the molecule `Cc1c(C(N)=O)sc2ncn(Cc3nnn(C[C@H](O)c4cc5ccccc5s4)n3)c(=O)c12` [Example 22], on human TRPA1 ion channel, the IC50 was 7 nM. Also, the “human Hepatocytes [% Qh]” value in data set [1] is on record as 44 % Qh. Moreover, the “human LM [% Qh]” value in data set [3] is 35 % Qh.

For `NC(=O)c1sc2ncn(Cc3nnn(C[C@H](O)c4ccc(Cl)cc4)n3)c(=O)c2c1Cl` [Example 23], the IC50 on human TRPA1 ion channel was 6 nM. For the same molecule, in data set [1], the “human Hepatocytes [% Qh]” value came to 12 % Qh. The “human LM [% Qh]” value in data set [3] is given as below 23 % Qh.
